Our source for the inhibition and cell count values is PubChem BioAssay AID1249 (Columbia University Molecular Screening Center, 2008).

Each structure is given as a SMILES string. Calls of active or inactive are those of the source. No rule for the calls is given here.

As usually defined, the inhibition is the drop in the measured response relative to a control, in per cent.

The nature of the first experiment: cellular cytoskeleton assembly phenotype modulators – imaging, high-content imaging, retest and dose response, confirmation (AID 1249).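 Also: compound exposure lasted 24 h before fixation.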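 As to inhibition: plate controls were untreated cells for no effect and reference compound treated cells for full effect.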 The note with it: cell-based imaging, cytoskeleton assembly phenotype, high content; at 2 µM; stronger effect = higher value.
`COc1ccc(/C=N/NC(=O)c2ccccc2Cl)cc1CSc1nc2ccccc2s1`: the inhibition was -6.6% (inactive).
The same measure, in the same setting: as for `CN(C)c1nc(N(C)C)nc(N(C#N)CCOc2ccccc2)n1`, the figure is -6.3% (inactive); as for `O=C1CCSc2cccc3cccc(c23)N1`, -5.2% (inactive).
`C/C(Cl)=C\Cn1c(NCCCn2ccnc2)nc2c1c(=O)n(C)c(=O)n2C`: the inhibition is -1.5% (inactive).
Still for that read-out and setting: the same measure for `COc1cc2c(cc1OC)/C(=C/C#N)NC(C)(C)C2`: 1.8% (inactive); for `O=S(=O)(c1ccc(Cl)cc1)c1snnc1-c1ccccc1`: 9.2% (inactive); for `CCCCNC(=O)CSc1cc(=O)n(C)c2ccccc12`: -21.1% (inactive).
Same read-out and setting: as for `Cc1nnc(SCc2cn3ccsc3n2)n(N)c1=O`, the figure is -0.8% (inactive); as for `O=C(COC(=O)c1ccccc1C(=O)c1ccc(Cl)c([N+](=O)[O-])c1)NC1CCCCCC1`, -8.3% (inactive); as for `COc1ccc(-c2nc(-c3ccc(NC(=O)c4ccc(Br)o4)cc3)no2)cc1OC`, -10.3% (inactive).
Regarding `CCOC(=O)c1cnc(-n2nc(C)cc2C)nc1N1CCOCC1`, the inhibition is 8.4% (inactive).
On the same count and under the same terms, as for `Nc1ccc2nc(-c3ccc(N)c(Cl)c3)[nH]c2c1`, the figure is 11.4% (inactive).
Still for that read-out and setting: as for `Cc1cc(NC(=O)C(=O)NCCN2CCN(C(=O)c3cccs3)CC2)ccc1Br`, the figure is 0.6% (inactive).
`COc1cc(/C=N/Nc2snc(SC)c2C#N)ccc1O`: the inhibition was -6.6% (inactive).
For `COc1ccc(C2=Nn3c(nnc3-c3ccccc3OC)SC2)cc1OC`, the inhibition is 0.9% (inactive).
Still for that read-out and setting: the same measure for `CCN1CCN(C(=O)CN(CCc2ccccc2)S(C)(=O)=O)CC1`: -9.3% (inactive); for `Cc1cc(NC(=O)CSc2nc(-c3ccco3)cc(C(F)(F)F)n2)no1`: -2.8% (inactive).
Regarding `O=C1CC(N2CCN(Cc3ccc4c(c3)OCO4)CC2)C(=O)N1c1ccccc1` (stereo not given), the inhibition is -6.6% (inactive).
Take `Cc1cccc(NC(=O)CN2NS(=O)(=O)c3ccccc3C2=O)c1`: the inhibition is -4.6% (inactive).
Still for that read-out and setting: the same measure for `CCn1c(=O)c2c(n3cnnc13)-c1ccccc1CC21CCCCC1`: 5.6% (inactive).
`COc1ccccc1-n1cnc2cc(NCc3ccco3)ccc21`: the inhibition was 10.7% (inactive).
The same measure, in the same setting: the same measure for `NC(=S)N/N=C/c1ccc(-c2ccc(Cl)c(Cl)c2)o1`: -6.9% (inactive).
Still for that read-out and setting: as for `CCC(=O)Nc1cccc(NC(=O)c2cc3ccccc3o2)c1`, the figure is -5.6% (inactive); as for `CC1C(c2ccccc2)C(C#N)(C#N)C2(C#N)C(=O)NC1(N)C2C` (stereo not given), 0.4% (inactive).
Take `COc1cccc(/C=N/Nc2nc(Nc3ccccc3)nc(-n3nc(C)cc3C)n2)c1O`: the inhibition is 1.2% (inactive).
`Cc1cc(C)n(-c2nc(-c3cccc(Cl)c3)cs2)n1`: the inhibition is -10.2% (inactive).
Turning to `O=C1Nc2ccc(S(=O)(=O)N3CCOCC3)c3cccc1c23`, the inhibition is 0.5% (inactive).
As for `COc1ccc(OC)c(NS(=O)(=O)c2ccc(N3CCCC3=O)cc2)c1`, the inhibition was -3.6% (inactive).
Turning to `O=C(N/N=C/C=C/c1ccccc1)c1n[nH]c2c1CCC2`, the inhibition was 2% (inactive).
As to `Cc1ccc(F)cc1NC(=O)c1ccc2c(c1)OCO2`, the inhibition is -1.6% (inactive).
On the same count and under the same terms, as for `Cc1cc(C(=O)NN=C2C3CC4CC(C3)CC2C4)c2ccccc2n1`, the figure is -3.8% (inactive); as for `CC1(C)OC(=O)C(=NNc2ccc(O)cc2)C(=O)O1`, -11.1% (inactive); as for `CC(C)NC1CS(=O)(=O)CC1O` (stereo not given), 4.9% (inactive).
For `CCn1c(CN2CCN(c3ccc(Cl)cc3)CC2)nc2ccccc21`, the inhibition is -1% (inactive).
As for `Cc1nc(SCc2ccc(Br)cc2)[nH]c(=O)c1C`, the inhibition is -1.2% (inactive).
The same measure, in the same setting: the same measure for `COc1cc(NC(=O)c2ccc(COCC(F)(F)F)o2)cc(OC)c1OC`: 5.2% (inactive); for `CCOC(=O)c1ccc(NC(=O)Cn2nnc(-c3ccccc3)n2)cc1`: 1.3% (inactive).
Same read-out and setting: as for `O=C(O)C1C2C=CC(O2)C1C(=O)Nc1ccc(S(=O)(=O)Nc2ccccc2)cc1` (stereo not given), the figure is -5.8% (inactive).
As for `COc1ccc(O)c(C=Nc2cc(C)on2)c1`, the inhibition is -0.2% (inactive).
`c1ccc(-n2ncc3c(NCc4ccccn4)ncnc32)cc1`: the inhibition was 24.5% (inactive).
With `Cc1ccc(S(=O)(=O)Cn2nnnc2C(C(C)C)N2CCN(c3nc4ccccc4s3)CC2)cc1` (stereo not given), the inhibition is 4.2% (inactive).
With `Oc1ccc(N2CCN(c3ncnc4sc5c(c34)CCC5)CC2)cc1`, the inhibition is -5.1% (inactive).
As to `Cc1ccc2[nH]c3c(c2c1)CCC3=O`, the inhibition is -8.6% (inactive).
Turning to `Cc1ccc(CNC(=O)Cn2ccc3ccccc3c2=O)o1`, the inhibition is -10.7% (inactive).
Turning to `CC(C)C(=O)N1CCN(c2nc(-c3ccccc3)c3c(c2C#N)CC(C)(C)OC3)CC1`, the inhibition was -5.6% (inactive).
Still for that read-out and setting: the same measure for `C=C(C)c1cccc(C(C)(C)NC(=O)Nc2ncccn2)c1`: 1.8% (inactive); for `Cc1ccc(C)c(NC(=O)c2nnn(Cc3ccccc3)c2N)c1`: -0.1% (inactive).
For the compound `O=C1c2cccc3c([N+](=O)[O-])ccc(c23)C(=O)N1c1nccs1`, the inhibition is -0.1% (inactive).
Still for that read-out and setting: as for `COc1ccc(C(=O)c2c(C(F)(F)F)oc3c2C(=O)c2ccccc2C3=O)cc1`, the figure is -14.9% (inactive).
The same measure, in the same setting: as for `Nc1nnnn1/N=C/C(Br)=C/c1ccccc1`, the figure is 1.2% (inactive); as for `C=CCc1ccccc1OCC(O)CNC` (stereo not given), 2.3% (inactive).
The same measure, in the same setting: the same measure for `CC(=O)Nc1ccc(NC2(C)C(=O)c3ccccc3C2=O)cc1`: 0.7% (inactive); for `CCc1cccc(CC)c1NC(=O)C1SC(=Nc2ccccc2C)C(c2nc3ccccc3s2)=C1N` (stereo not given): 5% (inactive); for `Cc1ccc(S(=O)(=O)c2cc(C#N)c(=O)[nH]c2N)cc1`: 9.1% (inactive).
Turning to `O=C(NC1CC1)c1ccc(S(=O)(=O)NCC2CCCCC2)cc1`, the inhibition is -2.7% (inactive).
With `CCn1c(SCC(=O)NC(C)c2ccccc2)nc2ccccc21` (stereo not given), the inhibition is 0.7% (inactive).
The same measure, in the same setting: the same measure for `O=C(NC(Cc1c[nH]c2ccccc12)C(=O)O)c1ccco1` (stereo not given): -3% (inactive); for `CNC(=O)c1ccccc1NC(=O)c1ccco1`: 0.5% (inactive); for `Cn1c(SCC(=O)NC2CCCCC2)nnc1-c1cccc(N)c1`: -8.2% (inactive).
Consider `COc1ccc(NC(=O)N(Cc2ccc3c(c2)OCO3)C2CC(=O)N(c3ccc(OC)cc3)C2=O)cc1` (stereo not given), for which the inhibition is -22.4% (inactive).
Still for that read-out and setting: as for `CCN(CC)c1ccc(-c2nn3c(-c4n[nH]c5c4CCC5)nnc3s2)cc1`, the figure is 5.7% (inactive); as for `CCCCCCCC(=O)N/N=C(\C)c1cccnc1`, 2.2% (inactive); as for `OCCCCNc1cccc2ccccc12`, -7.2% (inactive).
With `CCOC(=O)N1CCN(C(=O)COc2ccc(Cl)cc2C)CC1`, the inhibition was 0.3% (inactive).
On to `COc1ccc(CN2CCCCC2C(=O)Nc2ccc(OC)c(OCC(C)C)c2)cc1OC` (stereo not given), for which the inhibition was -2.9% (inactive).
On the same count and under the same terms, the same measure for `CCOc1cc(S(=O)(=O)Nc2ccccc2CC)ccc1Cl`: -1.7% (inactive); for `Cc1nc(-c2cccnc2)sc1C(=O)Nc1cccc(C(F)(F)F)c1`: 2.2% (inactive).
For `CCc1nc2oc3ccccc3c(=O)c2c(=O)n1CCOC`, the inhibition was 1.7% (inactive).
Turning to `Cc1ccc(Nc2nc(CSc3nnnn3C)cs2)cc1`, the inhibition is -5.6% (inactive).
Turning to `CC(C)Sc1nc2c(c(=O)n1-c1ccc(F)cc1)SCC2`, the inhibition was -6.3% (inactive).
Turning to `CCOC(=O)Cc1csc(NC(=O)COc2ccc(N(C)S(=O)(=O)c3ccc(C)cc3)cc2)n1`, the inhibition is 0% (inactive).
For the compound `O=C(COC(=O)C1c2ccccc2Oc2ccccc21)NC1CCS(=O)(=O)C1` (stereo not given), the inhibition is -16.7% (inactive).
On the same count and under the same terms, the same measure for `CC(=O)c1cccc(NC(=O)c2cc(-c3ccc(F)cc3)on2)c1`: 0.8% (inactive); for `CCOC(=O)c1cnn(-c2nc3c(C)cccc3s2)c1C`: -1.2% (inactive).
With `Cc1cc(S(=O)(=O)NCCN2CCOCC2)c(C)s1`, the inhibition is 4.3% (inactive).
Same read-out and setting: as for `COC(=O)C1C(=O)C2=C(CC1C)NC(=O)CC2c1cccc(C)c1` (stereo not given), the figure is -3.5% (inactive).
On the same count and under the same terms, the same measure for `CCOC(=O)C1=C(c2ccccc2)O/C(=C(/C#N)C(F)(F)F)S1`: 2.3% (inactive); for `COc1ccc(S(=O)(=O)n2ccc(-c3ccc(OCCN(C)c4ccccn4)cc3)n2)cc1`: 11.9% (inactive); for `CC1Cc2cc(-c3csc(NC(=O)Cc4cccs4)n3)ccc2N1S(C)(=O)=O` (stereo not given): -0.1% (inactive).
The same measure, in the same setting: as for `Cc1cccc(NC(=O)CC2SC(=O)N(c3ccccc3)C2=O)c1` (stereo not given), the figure is 1.5% (inactive); as for `Cc1ccc(C(=O)CSc2nsc(C)c2C#N)cc1`, -11.1% (inactive); as for `C=CC(=O)Nc1ccc(Br)cc1`, -1.2% (inactive).
`COc1cc(C(=O)N2CCN(c3cc(Cl)ccc3Cl)CC2)cc(OC)c1OC`: the inhibition is -2.9% (inactive).
The same measure, in the same setting: as for `O=C(CCCCCN1C(=O)c2ccccc2C1=O)Nc1nccs1`, the figure is 8.8% (inactive); as for `CCc1cccc(CC)c1N(COC)C(=O)Cn1ccccc1=N`, -4.4% (inactive); as for `O=C(Nc1nccs1)c1cccc(N2C(=O)c3cccc4c([N+](=O)[O-])ccc(c34)C2=O)c1`, -8.2% (inactive).
As to `COc1cc2c(O)c3c(c(-c4ccc5c(c4)OCO5)c2cc1OC)C(=O)OC3`, the inhibition was 1.5% (inactive).
Consider `COc1ccc(CSc2nc3ccccc3[nH]2)cc1`, for which the inhibition was 9.9% (inactive).

Still in this experiment, the particulars now being: cell-based imaging, cytoskeleton assembly phenotype, high content; cell count; at 10 µM; stronger effect = lower value.
In turn, `COCCOC(=O)c1[nH]c2c(c1C)C(=O)CC(c1ccccc1)C2` (stereo not given) had a cell count of 56%.
In the case of `CCOc1ccc(C2=Nn3c(nnc3-c3ccccc3OC)SC2)cc1`, the cell count stood at 36.3%.
